The values that follow come from patent US20240165089A1, “METHOD FOR TREATING MYOPIA WITH VINPOCETINE” (EYE HOSPITAL, WENZHOU MEDICAL UNIVERSITY, priority 2021, published 2024).

Data set [1] deals with form deprivation myopia (FDM) guinea pig model. The experiment in a line: form deprivation myopia (FDM) guinea pig model, injection around the eyeball. The format is in vivo. The source says:
The form deprivation and lens-induced guinea pig myopia model is a classic and recognized myopia animal model in the field. The model can be used to evaluate the efficacy and safety of drugs for treating myopia. The construction method of the model is well known to those skilled in the art. The animal modeling and administration route in this application refer to the scientific literature previously published by this research group (Sen Zhang, Invest Ophthalmol Vis Sci. 2019 Jul. 1; 60(8):3074-3083.; Miaozhen Pan, Exp Eye Res. 2021 January; 202:108332.), specifically, this application uses the following exemplary construction method of the form deprivation and lens-induced guinea pig myopia model:
three-week-old tricolor guinea pigs (both male and female, simulating humans aged 3-26 years old) were used and raised in the experimental animal room of Wenzhou Medical University in a 12-hour light (400-500 lux)/12-hour dark environment with free access to water and food. The myopia model adopted monocular form deprivation (FD) and lens induction (LI) modeling methods. […] In the lens induction group, a −4D lens was fixed in front of the right eye of the animal, and the left eye obtained normal vision. For the above animals, the lenses were cleaned twice a day to prevent the lenses from blurring. The animals in the experimental group were administrated at 9:00-9:30 am every day. […] The administration process for each animal was controlled in about 10 seconds. Administration began on the day of modeling, and was continuous for 2 weeks for the form deprivation group and was continuous for 1 week for the lens induction group. This experiment has been reviewed by the Experimental Animal Ethics Committee of Wenzhou Medical University.
The inventors prepared a 5 μM (i.e., 1.75 μg/mL) vinpocetine stock solution and stored at −80° C. The solvent was physiological saline. Before administration experiment, the stock solution was diluted with physiological saline to 1 μM, 0.1 μM, and 0.01 μM, respectively. During the formulation process of vinpocetine eye drops, the solubility can be increased by using conventional physical methods such as heating and stirring, or acids can also be used to adjust the PH value to increase solubility, and finally, the PH value can be adjusted to 7.31.
2. Form deprivation plus drug injection group: • wearing an eye mask on one eye and injecting vinpocetine (0.01 μM: 0.1 mL/day) into the eye wearing the eye mask for 2 weeks, sample size=15; • wearing an eye mask on one eye and injecting vinpocetine (0.1 μM: 0.1 mL/day) into the eye wearing the eye mask for 2 weeks, sample size=20; • wearing an eye mask on one eye and injecting vinpocetine 1.00 μM: 0.1 mL/day) into the eye wearing the eye mask for 2 weeks, sample size=22; • 3.
All animals in the same model efficacy experiment were measured within the same time period, and the first measurement was at 3 weeks of age, that is, before drug administration. Refractions and eyeball parameters were measured for the animals in the above FDM group before the experiment, after 1 week of administration in the experiment and after 2 weeks of administration in the experiment and for the animals in the LIM group before the experiment, after 3 days of administration in the experiment and after 7 days of administration in the experiment, respectively. The refractions were measured using an eccentric infrared photoretinoscope (EIR) built in our laboratory. Each eye was measured three times and the average was taken as the final result. The axial parameters of the guinea pig's eyeballs were measured using the A-ultrasound probe in the CinescanA/B ultrasonic diagnostic instrument (QuantelMedical, Aviso, France). The ultrasonic frequency was 11 MHz. The ultrasonic propagation speeds of different refractive media of the eyeball were set as: 1557.5 m/s for the anterior chamber, 1723.3 m/s for the lens, and 1540 m/s for the vitreous body.

Data set [2] relates to form deprivation myopia model of guinea pigs. The data set can be described thus: FDM guinea pig model, subconjunctival injection, salmeterol/tiotropium/vinpocetine. The conditions noted are these: FDM, vinpocetine 1 μM alone, subconjunctival, 2 weeks. The source says: The form deprivation myopia model of guinea pigs described in the present invention was used to evaluate the efficacy. […] On the first day of the experiment, guinea pigs were subjected to form deprivation at 8 a.m. using a mask method, with the right eye covered (experimental eye) and the left eye uncovered (contralateral eye). Starting from the day of modeling, solvents or drugs for the corresponding groups were given to the experimental eyes at 9-10 a.m. every day by eyeball subconjunctival injection at an injection volume of 100 μL, once a day for 2 weeks. The refraction and axial parameters of the animals were detected before the start of the efficacy experiment and at the end of the experiment. All data collection and processing methods were the same as in other embodiments of the present invention. The statistical basis was the difference between the experimental eye and the contralateral eye of the same subject individual.

Data set [3] deals with form deprivation myopia (FDM) guinea pig model. The data set can be described thus: FDM guinea pig model, systemic (gavage) administration. The conditions noted are these: for axial length difference between the eyes / vitreous chamber depth difference between the eyes / refraction difference between the eyes / body weight: FDM; for refraction difference between the eyes: end of treatment (2 weeks); for body weight / mean weight decrease vs solvent group: vinpocetine 50 mg/kg/d gavage. The class given is in vivo. The source says: The form deprivation myopia animal model and the method for evaluating the efficacy of vinpocetine for myopia treatment used in this experiment were the same as other relevant embodiments (local administration) in this application. Among them, the establishment of a guinea pig model of form deprivation myopia (FDM) and the gavage administration were manipulated and performed referring to the published literature in the inventor's laboratory. […] On the first day of the experiment, form deprivation (FD) myopia modeling began at 8 a.m. on the guinea pigs. The form deprivation myopia model adopted the mask method. The hood was made by the inventors using a 10-inch milky white non-toxic latex balloon. The right eye of the individual guinea pig for modeling was covered by the hood (experimental eye), and the left eye was not covered by the hood (contralateral eye). FD induction was continued during the entire vinpocetine efficacy experiment cycle by gavage administration, and the hood was only briefly removed during eye testing (such as refraction testing). […] The administration route was gavage administration. […] Administration was performed once a day for 2 weeks. […] 2017). Without adding other pharmaceutical excipients or other compounds, the inventors directly and completely dissolved the vinpocetine compound powder in 0.5% methylcellulose solvent (sterile water+methylcellulose) to prepare a vinpocetine preparation (gavage liquid) at 10 mg/mL and 20 mg/mL. The overall appearance of the preparation at room temperature was clear, transparent, and uniform, with no suspended matter visible to the naked eye. The preparation process of the preparation may use conventional physical and chemical solubilization means such as heating, stirring, and pH adjustment as appropriate, and no compounds would precipitate before administration of the preparation.

Setting [4] is: vinpocetine 1 μM, 1 week, vs vehicle.
Setting [5] is: vinpocetine 50 mg/kg gavage, 2 weeks.
Where [6] appears, read: vinpocetine 100 mg/kg gavage, 2 weeks.

Consider `CCOC(=O)C1=C[C@]2(CC)CCCN3CCc4c(n1c1ccccc41)[C@@H]32` [vinpocetine], for which the “refraction change towards negative and vitreous chamber depth elongation compared with the negative control group” value in data set [1] (low-concentration vinpocetine 0.01 μM, two time points, no statistical difference) is given as “showed an inhibitory trend”. In addition, the “refraction difference between the experimental eye and the contralateral eye” value in data set [1] (vinpocetine 1 μM 0.1 mL/day peribulbar injection, 1 week) is on record as −2.44±1.88 D. In addition, in data set [1] (vinpocetine 1 μM, 1 week), the “axial length difference between the experimental eye and the contralateral eye” value stood at 0.07±0.05 mm; the “vitreous chamber depth difference between the experimental eye and the contralateral eye” value was determined as 0.06±0.05 mm. Moreover, in data set [1] (setting [4]), the “inhibition rate for the axial length” value stood at 39.8%, the “inhibition rate for the vitreous chamber depth” value is 45.0% and the refraction inhibition rate was 50.5%. For the same compound, in data set [1] (vinpocetine 1 μM, 2 weeks), the “axial length difference between the experimental eye and the contralateral eye” value is 0.08±0.05 mm; the “inhibition rate for the axial length” value was 48.2%; the “inhibition rate for the vitreous chamber depth” value is on record as 43.4%; the “refraction difference between the experimental eye and the contralateral eye” value is given as −3.36±2.21 D. Besides, in data set [1] (vinpocetine 1 μM, 2 weeks), the refraction inhibition rate is 50.1%; the “vitreous chamber depth difference between the experimental eye and the contralateral eye” value is recorded as 0.09±0.05 mm. In data set [2], the “refraction change towards negative, axial length elongation and vitreous chamber depth increase vs negative control” value is on record as “significantly inhibited”. In data set [3] (setting [5]), the “axial length difference between the eyes” value amounted to 0.13±0.05 mm and the “vitreous chamber depth difference between the eyes” value came to 0.13±0.07 mm. Besides, the “refraction difference between the eyes” value in data set [3] (vinpocetine 50 mg/kg gavage) is −5.71±2.41 D. In addition, in data set [3] (1 week), the body weight was 188 ± 22.9 g and the “mean weight decrease vs solvent group” value is recorded as 9.9%. In data set [3] (2 weeks), the body weight came to 210 ± 21.9 g and the “mean weight decrease vs solvent group” value was 8.4%. In data set [3] (setting [6]), the “axial length difference between the eyes” value worked out at 0.11±0.05 mm and the “vitreous chamber depth difference between the eyes” value came out at 0.10±0.06 mm. Further, the “refraction difference between the eyes” value in data set [3] (vinpocetine 100 mg/kg gavage) is −5.223±2.20 D.
